In one data set the target is T1, human NPP3 (Homo sapiens, UniProt O14638).
T1 sequence (O14638 1-875): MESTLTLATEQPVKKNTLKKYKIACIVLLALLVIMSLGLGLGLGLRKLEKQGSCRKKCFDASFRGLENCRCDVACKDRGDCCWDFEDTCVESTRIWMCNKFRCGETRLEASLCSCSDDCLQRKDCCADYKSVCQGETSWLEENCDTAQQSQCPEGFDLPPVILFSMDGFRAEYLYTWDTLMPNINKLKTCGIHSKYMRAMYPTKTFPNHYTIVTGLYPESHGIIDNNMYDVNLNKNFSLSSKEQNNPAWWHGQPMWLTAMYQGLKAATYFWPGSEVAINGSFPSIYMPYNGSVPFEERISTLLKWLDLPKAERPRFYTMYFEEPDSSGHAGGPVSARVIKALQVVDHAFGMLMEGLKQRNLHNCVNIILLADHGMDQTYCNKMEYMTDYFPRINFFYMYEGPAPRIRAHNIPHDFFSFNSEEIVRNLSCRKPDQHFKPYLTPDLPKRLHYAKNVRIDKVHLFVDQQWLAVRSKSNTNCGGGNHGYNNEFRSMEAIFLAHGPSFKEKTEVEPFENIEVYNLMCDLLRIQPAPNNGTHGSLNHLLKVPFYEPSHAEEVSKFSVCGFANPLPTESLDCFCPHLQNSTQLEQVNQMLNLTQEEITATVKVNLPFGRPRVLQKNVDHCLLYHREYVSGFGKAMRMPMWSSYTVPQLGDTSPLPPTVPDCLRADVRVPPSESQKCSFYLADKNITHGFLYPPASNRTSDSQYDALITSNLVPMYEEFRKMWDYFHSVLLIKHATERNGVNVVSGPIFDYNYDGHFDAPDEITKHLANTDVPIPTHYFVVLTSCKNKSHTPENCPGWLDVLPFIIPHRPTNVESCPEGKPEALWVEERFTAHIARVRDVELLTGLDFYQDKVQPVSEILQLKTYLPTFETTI
The data set can be described thus: Inhibition of human NPP3, 100 μM p-Nph-5′-TMP as substrate (Tables 5, 7). Format: biochemical. The conditions noted are these: 10 μM; 100 μM p-Nph-5′-TMP as a substrate; inactive = no inhibition at 10 μM.

The target in the next data set is T2, Human CD39 (NTPDase1) (Homo sapiens, UniProt P49961).
T2 sequence (P49961 1-510): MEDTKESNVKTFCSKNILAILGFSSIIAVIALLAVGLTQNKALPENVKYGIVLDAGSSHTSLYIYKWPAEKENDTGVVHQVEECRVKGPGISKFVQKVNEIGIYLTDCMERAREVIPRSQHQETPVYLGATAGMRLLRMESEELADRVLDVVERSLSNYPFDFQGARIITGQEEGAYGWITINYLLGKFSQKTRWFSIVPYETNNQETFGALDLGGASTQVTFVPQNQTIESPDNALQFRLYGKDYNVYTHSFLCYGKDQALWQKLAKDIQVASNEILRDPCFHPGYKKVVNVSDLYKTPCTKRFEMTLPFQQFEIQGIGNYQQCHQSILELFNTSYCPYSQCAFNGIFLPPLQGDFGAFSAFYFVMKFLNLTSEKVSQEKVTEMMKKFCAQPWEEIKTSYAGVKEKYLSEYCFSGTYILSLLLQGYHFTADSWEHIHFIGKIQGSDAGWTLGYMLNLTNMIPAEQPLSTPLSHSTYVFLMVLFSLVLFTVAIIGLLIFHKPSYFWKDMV
Briefly: Inhibition of human CD39 (NTPDase1), 100 μM ADP as substrate. Format: biochemical. Particulars: 100 μM ADP as a substrate; for Ki: read-out: Ki ± SD (μM), Human CD39 (NTPDase1).

The next data set addresses T3, Human CD73 (Homo sapiens, UniProt P21589).
T3 sequence (P21589 27-549): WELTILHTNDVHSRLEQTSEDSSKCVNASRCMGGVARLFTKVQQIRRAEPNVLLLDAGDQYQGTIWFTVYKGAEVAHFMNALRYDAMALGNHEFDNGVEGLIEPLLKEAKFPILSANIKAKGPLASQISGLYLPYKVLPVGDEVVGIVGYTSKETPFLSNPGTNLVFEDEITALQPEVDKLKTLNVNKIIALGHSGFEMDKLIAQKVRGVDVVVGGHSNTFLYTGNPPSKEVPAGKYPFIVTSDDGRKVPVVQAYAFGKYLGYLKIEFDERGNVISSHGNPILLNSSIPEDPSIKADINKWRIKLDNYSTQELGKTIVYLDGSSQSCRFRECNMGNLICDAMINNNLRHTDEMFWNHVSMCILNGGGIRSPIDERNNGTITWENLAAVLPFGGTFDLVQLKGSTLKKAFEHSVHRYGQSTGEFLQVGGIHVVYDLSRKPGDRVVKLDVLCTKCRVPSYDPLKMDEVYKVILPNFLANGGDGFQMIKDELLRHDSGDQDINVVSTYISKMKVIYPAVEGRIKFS
The data set can be described thus: Inhibition of human CD73, 5 μM [2,8-3H]AMP as substrate. Format: biochemical. Particulars: 5 μM [2,8-3H]AMP as a substrate; for Ki: read-out: Ki ± SD (μM), Human CD73; for % inhibition ± SD at 10 μM, Human CD73: inactive = no inhibition at 10 μM.

The conditions of data set [1]: cited from earlier work.
Data set [2] addresses T4, NPP1 (Homo sapiens, UniProt P22413).
T4 sequence (P22413 1-925): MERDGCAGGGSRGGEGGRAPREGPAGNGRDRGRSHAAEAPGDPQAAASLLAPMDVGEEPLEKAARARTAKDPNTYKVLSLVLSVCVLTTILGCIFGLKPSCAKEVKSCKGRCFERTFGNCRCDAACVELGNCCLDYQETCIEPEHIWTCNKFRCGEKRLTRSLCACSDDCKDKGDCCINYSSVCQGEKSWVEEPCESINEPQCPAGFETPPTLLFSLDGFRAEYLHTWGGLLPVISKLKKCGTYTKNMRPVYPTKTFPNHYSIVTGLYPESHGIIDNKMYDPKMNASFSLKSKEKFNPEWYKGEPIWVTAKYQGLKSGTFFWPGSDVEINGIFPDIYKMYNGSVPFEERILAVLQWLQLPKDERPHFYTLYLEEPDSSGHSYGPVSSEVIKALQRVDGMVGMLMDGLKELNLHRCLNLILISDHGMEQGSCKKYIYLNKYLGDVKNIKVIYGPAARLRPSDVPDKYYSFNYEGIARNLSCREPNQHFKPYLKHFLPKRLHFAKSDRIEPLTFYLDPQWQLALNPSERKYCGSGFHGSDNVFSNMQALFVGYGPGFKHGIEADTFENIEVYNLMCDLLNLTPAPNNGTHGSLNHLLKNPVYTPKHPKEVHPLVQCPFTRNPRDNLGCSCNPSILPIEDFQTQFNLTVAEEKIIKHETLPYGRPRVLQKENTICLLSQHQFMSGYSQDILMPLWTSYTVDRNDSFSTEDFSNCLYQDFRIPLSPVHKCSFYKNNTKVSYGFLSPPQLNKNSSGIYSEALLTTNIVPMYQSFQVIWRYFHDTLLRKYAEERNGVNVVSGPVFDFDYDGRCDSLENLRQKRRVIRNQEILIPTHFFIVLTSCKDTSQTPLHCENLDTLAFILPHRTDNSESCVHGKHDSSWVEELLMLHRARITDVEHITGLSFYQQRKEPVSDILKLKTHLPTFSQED
The data set can be described thus: Inhibition of human NPP1, 100 μM p-Nph-5′-TMP as substrate (Tables 5, 6). Particulars: for % inhibition ± SD at 10 μM, Human NPP1: inactive = no inhibition at 10 μM.

Data set [3] in a line: Chemical stability under acidic and basic conditions by 31P-NMR.
Text: To evaluate the chemical stability of uridine-5′-Pα,α-dithiophosphate analogues, we measured by 31P-NMR the time-dependent percentage of the analogues remaining under basic and acidic conditions, and due to air-oxidation.
The target of data set [4] is T4, NPP1. Briefly: Inhibition of human NPP1, 100 μM ATP as substrate (FIG. 9, Table 6). In kind it is biochemical. Particulars: 100 μM ATP as a substrate; read-out: Ki, human NPP1. The procedure: Each experiment was performed in triplicates;
Setting [5] is: 10 μM, inactive = no inhibition at 10 μM.
[6] abbreviates: 100 μM p-Nph-5′-TMP as a substrate.
[7] abbreviates: read-out: Ki ± SD (μM), Human NPP1, 100 μM p-Nph-5′-TMP as a substrate.

Structures are written as SMILES. Like-named read-outs stand apart in the source and are kept apart here.

For `Nc1ncnc2c1ncn2COCCOP(=O)(O)CP(=O)(O)O` [Compound 22], at human NPP3, the “% inhibition ± SD at 10 μM, Human NPP3” value was “inactived”. Moreover, at Human CD39 (NTPDase1) (setting [5]), the “% inhibition ± SD at 10 μM, Human CD39 (NTPDase1)” value (shortened to “% inhibition ± SD … (NTPDase1)”) amounted to 22 ± 2%. Besides, the Ki at Human CD39 (NTPDase1) is greater than 10 µM; on Human CD73, 12.6 ± 1.4 µM.

As to `Nc1nc(SCc2ccccc2)nc2c1ncn2[C@@H]1O[C@H](COP(O)(=S)OP(=O)(O)OP(=O)(O)O)[C@@H](O)[C@H]1O` (stereo partly drawn) [2-Benzylthio-ATP-α-S], in data set [1] (Acidic pH, reference 34), the “Time for decomposition of 5%” value is 0.8 days and the “Time for decomposition of 10%” value is 1.7 days.

On to `Nc1ncnc2c1ncn2COCCOP(O)(=S)OCCOCn1cnc2c(N)ncnc21` [Compound 26], for which, on human NPP3, the “% inhibition ± SD at 10 μM, Human NPP3” value is “inactived”. For the same compound, the “% inhibition ± SD … (NTPDase1)” value at Human CD39 (NTPDase1) (setting [5]) amounted to 15 ± 2%. Moreover, the inhibition constant (Ki) at Human CD39 (NTPDase1) and on NPP1 [2] (setting [7]) was greater than 10 µM throughout. In addition, on Human CD73, the “% inhibition ± SD at 10 μM, Human CD73” value was “inactived”. For the same compound, the “% inhibition ± SD at 10 μM, Human NPP1” value on NPP1 [2] (setting [6]) turned out to be 13 ± 1%.

`Nc1ncnc2c1ncn2COCCOP(=O)(O)O` [Compound 24]: the “% inhibition ± SD at 10 μM, Human NPP3” value at human NPP3 was “inactived”. Also, at Human CD39 (NTPDase1) (setting [5]), the “% inhibition ± SD … (NTPDase1)” value was “inactived”. Besides, at Human CD73, the Ki was greater than 10 µM and the “% inhibition ± SD at 10 μM, Human CD73” value is listed as 5 ± 3%. Moreover, at NPP1 [2] (setting [6]), the “% inhibition ± SD at 10 μM, Human NPP1” value was “inactived”.

`O=c1ccn([C@@H]2O[C@H](COP(=O)(O)OP(=O)(O)O)[C@@H](O)[C@H]2O)c(=O)[nH]1` [UDP]: in data set [3] (pD 2.1, after 28 days), the decomposition stood at 7%.

As for `CSc1nc(N)c2ncn(C3OC(COP(O)(=S)OP(=O)(O)O)C(O)C3O)c2n1` (stereo not drawn) [2-Methylthio-ADP-α-S], in data set [1] (Basic pH, reference 24), the “Time for decomposition of 5%” value was less than 0.021 days and the “Time for decomposition of 10%” value was less than 0.021 days.

As for `Nc1ncnc2c1ncn2[C@@H]1O[C@H](COS(=O)(=O)CS(=O)(=O)O)[C@@H](O)[C@H]1O` [Compound 21], at human NPP3, the “% inhibition ± SD at 10 μM, Human NPP3” value was “inactived”. Moreover, at Human CD39 (NTPDase1) (setting [5]), the “% inhibition ± SD … (NTPDase1)” value was “inactived”. The Ki on Human CD73 and at NPP1 [2] (setting [7]) was greater than 10 µM each time. On Human CD73, the “% inhibition ± SD at 10 μM, Human CD73” value was determined as 23 ± 3%. On NPP1 [2] (setting [6]), the “% inhibition ± SD at 10 μM, Human NPP1” value amounted to 12 ± 1%.

As for `O=c1ccn([C@@H]2O[C@H](COP(=O)(O)OP(=O)(O)OP(=O)(O)O)[C@@H](O)[C@H]2O)c(=O)[nH]1` [UTP], the “Time for decomposition of 5%” value in data set [3] (Acidic pH) was determined as 7.5 days; in data set [3] (Basic pH) it was 1 days. The entries for the “Time for decomposition of 10%” value in data set [3] (Acidic pH) and in data set [3] (Basic pH) were 19 days and 8.5 days, respectively. In addition, the decomposition in data set [3] (acidic, pD 2.1, after 20 days) worked out at 11%; in data set [3] (basic conditions (pD 12.1), after 20 days), 10%.

`Nc1ncnc2c1ncn2COCCO[PH](=O)O` [Compound 25]: the “% inhibition ± SD at 10 μM, Human NPP3” value at human NPP3 was “inactived”. Besides, the inhibition at 10 µM on Human CD39 (NTPDase1) (10 μM, inactive = no inhibition at 10 μM, read-out: % inhibition ± SD at 10 μM, Human CD39 (NTPDase1)) was 33%; on NPP1 [2] (read-out: % inhibition ± SD at 10 μM, Human NPP1) it was 6%. Further, the inhibition constant (Ki) on Human CD39 (NTPDase1) and at NPP1 [2] was greater than 10 µM each time. Moreover, the “% inhibition ± SD at 10 μM, Human CD73” value at Human CD73 is “inactived”.

Consider `Nc1ncnc2c1ncn2COCCOP(=O)(O)CP(=O)(O)O` [Analogue 22], for which the inhibition constant Ki on NPP1 [4] is 9.6 ± 2.84 µM; on NPP1 [2] (setting [7]), 16.3 ± 2.5 µM.

As for `Nc1ncnc2c1ncn2[C@@H]1O[C@H](COP(=O)(O)CS(=O)(=O)O)[C@@H](O)[C@H]1O` [Compound 20], the “% inhibition ± SD at 10 μM, Human NPP3” value on human NPP3 was “inactived”. Moreover, the “% inhibition ± SD … (NTPDase1)” value on Human CD39 (NTPDase1) (setting [5]) is “inactived”. In addition, the Ki on Human CD73 is 49.5 ± 0.7 µM. For the same compound, at NPP1 [2] (setting [6]), the “% inhibition ± SD at 10 μM, Human NPP1” value is “inactived”.

`Nc1ncnc2c1ncn2COCCOP(=O)(O)C(Cl)(Cl)P(=O)(O)O` [Compound 23]: the “% inhibition ± SD at 10 μM, Human NPP3” value on human NPP3 is “inactived”. Moreover, on Human CD39 (NTPDase1) (setting [5]), the “% inhibition ± SD … (NTPDase1)” value was 24 ± 3%. Moreover, the Ki on Human CD39 (NTPDase1), on Human CD73 and on NPP1 [2] (setting [7]) was greater than 10 µM throughout. The “% inhibition ± SD at 10 μM, Human CD73” value on Human CD73 was determined as 17 ± 4%. The “% inhibition ± SD at 10 μM, Human NPP1” value at NPP1 [2] (setting [6]) was 4 ± 1%.

The values are drawn from patent publication US20220220135A1 (BAR-ILAN UNIVERSITY, priority 2019, published 2022).
